# Read-outs that look alike come from different tables or passages of the source.
# What was measured:
# PC12 cells [1] = experiment: Effect on PC12 cell growth ([3H]thymidine and [3H]leucine incorporation over 5 days); assay type: cell-based; details: presence and absence of NGF
# Method: Cell growth was estimated both visually and by the incorporation of [^3 H]thymidine and [^3 H]leucine over a period of 5 days in the presence and absence of nerve growth factor, 50 nanogm/well (NGF-7S was obtained from Boehringer Mannheim Biochemicals, Indianapolis, Ind.; labeled amino acids and thymidine were obtained from New England Nuclear, Boston, Mass.). On day one, compound 1 was added in concentrations ranging from 0.005 to 1.5 mM. Less than 10% inhibition in isotope-incorporation was observed between control and cultures over the five day period.
# PC12 cells [2] = experiment: Incorporation of tyrosine, leucine and thymidine into PC12 cells; assay type: cell-based; details: for inhibition at 1000 µM: Rattus norvegicus
# Method: The incorporation (2 μCi/well) of [^14 CU]tyrosine, [^3 H]thymidine were measured in the presence and absence of 2-azidotyrosine (1.0 mM) over a period of 72 hours. PC12 cells were grown as monolayers in 150 cm^2 tissue culture flasks at 37° C. in 6% CO2 in Dulbecco's modified Eagle's medium supplemented with 7% fetal bovine serum, 7% horse serum, and 100 μg streptomycin and 100 units of penicillin per ml. The cells were split after 3 days and aliquots (2 ml) transferred to 6 well culture plates. 2-Azidotyrosine (final concentration, 1 mM), [^14 CU] tyrosine (2 μCi/well), [^3 H]leucine (2 μCi/well), and [^3 H]thymidine (2 μCi/well) were added in 0.5 ml solutions in cell media. The final volume of each well was adjusted to 3.0 ml. The cultures were incubated in the dark at 37° C. in 6% CO2 for 12, 24, 48 and 72 hrs. Cells were removed and transferred to conical tubes (10 ml), sedimented by centrifugation, and washed 3X with phosphate buffered saline, pH 7.2. The cell sediment was dissolved in 0.5 ml of a solution of 0.5N NAOH containing 1% SDS over a period of 30 min., neutralized with 0.5 ml 0.5N HCl, and the isotope content measured by scintillation spectrometry. The results are expressed at the mean±SEM for 3 wells for each set of conditions.
# tyrosine phenol-lyase = tyrosine phenol-lyase (Citrobacter freundii, UniProt P31013); experiment: Tyrosine phenol-lyase catalyzed hydrolytic cleavage to ammonium pyruvate and 3-azidophenol; assay type: biochemical; details: as substrate; % of Vmax of L-tyrosine
# [3] = test system: mushroom tyrosinase (sigma); experiment: Mushroom tyrosinase oxidation (UV/visible spectra; dopaquinone production at 480 nm); assay type: biochemical
# Text: Thus, compound 1 is apparently able to bind strongly to mushroom tyrosinase.
# Sequence of tyrosine phenol-lyase (P31013 whole entry, species assumed): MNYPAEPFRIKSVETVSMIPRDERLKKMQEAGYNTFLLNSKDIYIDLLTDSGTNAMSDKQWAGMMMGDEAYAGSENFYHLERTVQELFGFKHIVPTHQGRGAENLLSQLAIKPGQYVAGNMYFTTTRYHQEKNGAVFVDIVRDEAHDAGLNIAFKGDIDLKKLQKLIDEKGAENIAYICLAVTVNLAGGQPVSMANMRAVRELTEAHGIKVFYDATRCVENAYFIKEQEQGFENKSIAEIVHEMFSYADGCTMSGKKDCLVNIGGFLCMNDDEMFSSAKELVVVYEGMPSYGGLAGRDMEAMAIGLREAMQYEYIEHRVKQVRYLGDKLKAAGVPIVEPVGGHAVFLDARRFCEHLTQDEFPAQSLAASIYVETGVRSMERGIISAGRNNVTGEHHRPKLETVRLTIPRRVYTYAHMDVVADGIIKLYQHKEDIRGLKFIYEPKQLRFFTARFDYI
smiles,measurement,setting,value
"[N-]=[N+]=Nc1cc(O)ccc1C[C@H](N)C(=O)O [compound 1, 2-azido-L-tyrosine]",inhibition in isotope-incorporation,"PC12 cells [1]; 0.005 to 1.5 mM, [3H]thymidine and [3H]leucine, five day period",Less than 10%
same,growth of PC12 cells,"PC12 cells [1]; maximum concentration 1.5 mM, 5 days",did not significantly inhibit
same,incorporation of [3H]leucine,"PC12 cells [2]; 1.0 mM, up to 72 hrs",not significantly different from control
same,inhibition at 1000 µM,"PC12 cells [2]; PC-12, 1.0 mM, 24 hours, read-out: inhibition of [3H]thymidine incorporation",34%
same,inhibition at 1000 µM,"PC12 cells [2]; PC-12, 1.0 mM, 72 hours, read-out: inhibition of [3H]thymidine incorporation",24%
same,inhibition at 1000 µM,"PC12 cells [2]; PC-12, 24 h, 1.0 mM, 24 hrs, compared to untreated controls, read-out: inhibition of [14CU]tyrosine incorporation",~58%
same,inhibition at 1000 µM,"PC12 cells [2]; PC-12, 72 h, 1.0 mM, 72 hrs, compared to untreated controls, read-out: inhibition of [14CU]tyrosine incorporation",~38%
same,Vmax (relative to that of L-tyrosine),tyrosine phenol-lyase,18%
same,lag period before oxidation of L-tyrosine,"[3]; 0.1 mM, equimolar L-tyrosine, dopaquinone at 480 nm",much longer lag periods
same,hydroxylation by mushroom tyrosinase,"[3]; extensive incubation, UV and visible absorption spectra",not hydroxylated
same,binding to mushroom tyrosinase,[3]; inferred from lag period,bind strongly
